Patent publication US20230146870A1, “METHOD TO QUANTIFY AFFINITY AND SELECTIVITY OF SMALL MOLECULES FOR PROTEINS IN LIVING CELLS” (Ohio State Innovation Foundation, priority 2021, published 2023)

What was measured:
murine PKCβI-mVenus = target: T1, murine PKCβI-mVenus (Mus musculus, UniProt P68404); test: FPCBA saturation binding, HEK293 cells expressing PKCβI-mVenus (Example 3); details: BIM1 2 μM, 2 h at 37° C., 4% FBS
T1 construct: fused on or other part: mVenus at the C-terminus
Excerpt: (§1) To investigate the potential for quantitative analysis of binding to PKCs expressed in cells, we evaluated whether 1-3 could readily achieve equilibrium, which is necessary for measurements of cellular equilibrium dissociation constants (Kd).

PKCβI-mVenus = target: T2, PKCβI-mVenus (Mus musculus, UniProt P68404); test: Confocal microscopy of translocation of PKCβI-mVenus in HEK293 cells; type: cell-based; details: 2 μM, 2 h
T2 construct: we generated expression vectors for eight full-length mouse isozymes; expressed in transfected cells; host or cells: HEK293 (ATCC CRL-1573), transient transfection with CMV-PKC betaI-mVenus-N1
T2 sequence (P68404 whole entry): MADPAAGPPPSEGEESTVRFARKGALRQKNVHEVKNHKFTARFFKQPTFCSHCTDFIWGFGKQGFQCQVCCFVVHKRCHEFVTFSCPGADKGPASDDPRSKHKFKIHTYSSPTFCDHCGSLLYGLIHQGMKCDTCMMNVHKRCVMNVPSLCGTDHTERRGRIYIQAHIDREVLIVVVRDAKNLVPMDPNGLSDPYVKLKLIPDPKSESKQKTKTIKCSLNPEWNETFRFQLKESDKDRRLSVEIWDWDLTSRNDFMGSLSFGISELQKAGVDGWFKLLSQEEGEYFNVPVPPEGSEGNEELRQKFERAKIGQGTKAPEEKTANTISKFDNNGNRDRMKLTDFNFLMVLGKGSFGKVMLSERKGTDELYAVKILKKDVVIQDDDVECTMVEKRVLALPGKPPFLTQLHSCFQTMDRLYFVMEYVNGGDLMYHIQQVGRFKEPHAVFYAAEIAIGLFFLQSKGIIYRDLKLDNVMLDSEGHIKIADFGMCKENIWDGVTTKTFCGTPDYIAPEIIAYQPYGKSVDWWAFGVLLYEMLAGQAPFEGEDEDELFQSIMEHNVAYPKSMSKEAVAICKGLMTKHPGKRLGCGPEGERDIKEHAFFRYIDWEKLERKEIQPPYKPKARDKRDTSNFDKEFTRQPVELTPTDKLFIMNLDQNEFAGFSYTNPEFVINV
Description: FIGS. 36A-36D provide confocal and DIC micrographs of living HEK293 cells transiently transfected to express PKCβI-mVenus. […] Scale bars=10 microns.
This IRES vector was derived from a previously reported^52 variant encoding the somewhat less fluorescent protein Venus.
Living cells cultured on an 8-well chamber glass slide (Ibidi μ-Slide, 300 μL, 100,000 cells/well) were imaged with an inverted Leica TCS SP8 confocal laser-scanning microscope (63× oil-immersion objective). Fluorescent probes were excited at 405 nm and mVenus was excited at 488 nm. Emitted photons were collected from 425-500 nm and 500-650 nm. For imaging, transiently transfected HEK293 cells in complete medium (10% FBS) were plated on the Ibidi μ-Slide for 16 h to promote adherence. Concentrated stock solutions of fluorescent probes in DMSO were serially diluted 500-fold in serum-free DMEM medium to afford 2× stock solutions (0.2% DMSO). Half of the cell culture medium (150 μL) was carefully removed by pipet and gently replaced with the 2× stock solution of the probe in serum-free medium (final [FBS]˜5%). Cells were treated with probes (2 μM) at 37° C. for 2 h before imaging by microscopy. Laser power and PMT gain settings were identical for all images and controls within a given experiment for accurate comparisons of cellular fluorescence.

[1] = tested on: HEK293 cells expressing PKCβI-mVenus; test: Kinetics of uptake of probes in HEK293 cells transiently transfected with PKCβI-mVenus; type: cell-based; details: probe 1 μM, room temperature, BIM1 2 μM, 4% FBS
Description: Cells were treated with probes and analyzed by flow cytometry. […] [BIM1]=2 μM. [FBS]=4%.
as §1
The cells were re-suspended in fresh reduced serum media lacking antibiotics (4% FBS) at a cell density of ˜500,000 cells per mL and were added to a 96-well plate (100 μL per well). […] Fluorescent probes were prepared as absorbance-normalized 1 mM DMSO stock solutions and diluted into reduced serum DMEM media lacking antibiotics (4% FBS) to achieve a final concentration of the probe of 1 μM ([…]). [BIM1]=2 μM. After addition of probes, cells were analyzed at room temperature every 5 min as singletons. Living cells with the greatest green fluorescence from expression of mVenus (top 20%, transfected) and the lowest green fluorescence (bottom 20%, non-transfected) were gated to obtain median PB450 values of uptake of the fluorescent probes. For the slower kinetics of uptake of probe 3, cells were analyzed every 20 min in triplicate. These curves were fitted with a one-phase association model (GraphPad Prism 9) to determine t1/2 values.

[2] = tested on: cellular microtubules (HeLa cells); test: Pilot screen of NCI Diversity Set VI: inhibition of binding of PB-GABA-Taxol, with dose-response validation; details: 25 μM, 3 h, normalized to DMSO (0%) and paclitaxel 10 μM (100%)
[3] = target: crosslinked / purified microtubules; details: previously reported; read-out: biochemical Kd for microtubules; cited from earlier work
[4] = tested on: microtubules (taxane binding site) in living HeLa cells; test: Competition binding assay with PB-GABA-Taxol in living HeLa cells (cellular Ki); details: read-out: cellular Ki; PB-GABA-Taxol 1.5 μM, verapamil 100 μM, 37° C., 4% FBS, 3 h
Description: In this assay the cellular Kd was measured by varying the concentration of the fluorescent probe added to cells at equilibrium as established by kinetic assays of probe uptake. Total binding of this probe to specific and non-specific sites in cells in the presence of the efflux inhibitor verapamil was determined by flow cytometry. Non-specific binding was quantified separately by addition of excess paclitaxel with the probe under the same conditions. Subtraction of the linear non-specific binding contribution from the total binding curve was used analyze specific binding of the probe to tubulin of microtubules. Measurement of this cellular dissociation constant under equilibrium conditions further allowed conversion of the half-maximal inhibitory concentration (IC50) of unlabeled compounds into cellular inhibitory constants using an adaptation of the Cheng-Prusoff equation^44 for competitive modulators (Ki) or the allosteric equation^45 for non-competitive modulators (Kb and the cooperativity factor α) as implemented by GraphPad Prism.

mouse PKCβI-mVenus = target: T3, mouse PKCβI-mVenus (Mus musculus, UniProt P68404); test: Fluorescent cellular competition assay with probe 47, PKCβI-mVenus; type: binding
T3 construct: eight plasmids encoding full length mouse PKC isozymes fused to; expressed in transfected cells; host or cells: HEK293
T3 sequence (P68404 whole entry, the tested form may be a part): as the sequence (P68404 whole entry) above
Excerpt: (§2) Labeled compounds (tracers) can be used to measure dissociation constants (Kd) and evaluate how tightly different compounds bind to a target protein. However, labeled ligands are not always readily accessible and labels such as fluorophores on small molecules can affect affinities compared to unlabeled compounds. As an alternative, competitive binding assays are widely used to quantify the affinity of small molecules for target proteins. This approach can measure binding by varying the concentration of an unlabeled ligand in the presence of a fixed concentration of a tracer of interest (FIG. 24). The feasibility of this approach for quantification of cellular Ki values using probe 47 was validated with PMA as shown in Table 1.
(§3) HEK293 cells were transfected with different plasmids encoding fluorescent PKC isoforms.

mouse PKCα-mVenus = mouse PKCα-mVenus (Mus musculus, UniProt P20444); test: Fluorescent cellular competition assay with probe 47, PKCα-mVenus; type: binding; set-up: eight plasmids encoding full length mouse PKC isozymes fused to; expressed in transfected cells; host or cells: HEK293
Excerpt: as §2, §3

mouse PKCγ-mVenus = mouse PKCγ-mVenus (Mus musculus, UniProt P63318); test: Fluorescent cellular competition assay with probe 47, PKCγ-mVenus; type: binding; set-up: eight plasmids encoding full length mouse PKC isozymes fused to; expressed in transfected cells; host or cells: HEK293
Excerpt: as §2, §3

mouse PKCδ-mVenus = mouse PKCδ-mVenus (Mus musculus, UniProt P28867); test: Fluorescent cellular competition assay with probe 47, PKCδ-mVenus; type: binding; set-up: eight plasmids encoding full length mouse PKC isozymes fused to; expressed in transfected cells; host or cells: HEK293
Sequence of mouse PKCδ-mVenus (P28867 whole entry, the tested form may be a part): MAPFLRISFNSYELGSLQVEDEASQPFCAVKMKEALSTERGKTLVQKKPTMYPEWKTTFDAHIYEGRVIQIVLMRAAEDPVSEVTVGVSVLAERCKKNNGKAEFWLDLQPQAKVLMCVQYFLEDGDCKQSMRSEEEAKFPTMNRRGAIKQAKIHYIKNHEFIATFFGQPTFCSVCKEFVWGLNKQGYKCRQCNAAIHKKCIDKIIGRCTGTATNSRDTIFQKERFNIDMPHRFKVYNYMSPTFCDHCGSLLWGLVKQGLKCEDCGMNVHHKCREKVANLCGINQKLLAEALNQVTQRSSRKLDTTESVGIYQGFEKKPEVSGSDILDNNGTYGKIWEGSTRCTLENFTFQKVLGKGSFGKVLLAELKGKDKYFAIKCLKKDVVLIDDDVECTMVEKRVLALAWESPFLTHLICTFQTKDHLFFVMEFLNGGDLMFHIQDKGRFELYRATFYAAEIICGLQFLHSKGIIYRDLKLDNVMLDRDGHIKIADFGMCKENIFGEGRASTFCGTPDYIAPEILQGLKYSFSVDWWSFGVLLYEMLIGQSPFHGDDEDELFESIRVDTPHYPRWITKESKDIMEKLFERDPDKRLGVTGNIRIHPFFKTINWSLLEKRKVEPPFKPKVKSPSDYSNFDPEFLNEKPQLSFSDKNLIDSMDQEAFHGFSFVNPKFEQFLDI
Excerpt: as §2, §3

mouse PKCε-mVenus = target: T4, mouse PKCε-mVenus (Mus musculus, UniProt P16054); test: Fluorescent cellular competition assay with probe 47, PKCε-mVenus; type: binding; set-up: eight plasmids encoding full length mouse PKC isozymes fused to; expressed in transfected cells; host or cells: HEK293
T4 sequence (P16054 1-737): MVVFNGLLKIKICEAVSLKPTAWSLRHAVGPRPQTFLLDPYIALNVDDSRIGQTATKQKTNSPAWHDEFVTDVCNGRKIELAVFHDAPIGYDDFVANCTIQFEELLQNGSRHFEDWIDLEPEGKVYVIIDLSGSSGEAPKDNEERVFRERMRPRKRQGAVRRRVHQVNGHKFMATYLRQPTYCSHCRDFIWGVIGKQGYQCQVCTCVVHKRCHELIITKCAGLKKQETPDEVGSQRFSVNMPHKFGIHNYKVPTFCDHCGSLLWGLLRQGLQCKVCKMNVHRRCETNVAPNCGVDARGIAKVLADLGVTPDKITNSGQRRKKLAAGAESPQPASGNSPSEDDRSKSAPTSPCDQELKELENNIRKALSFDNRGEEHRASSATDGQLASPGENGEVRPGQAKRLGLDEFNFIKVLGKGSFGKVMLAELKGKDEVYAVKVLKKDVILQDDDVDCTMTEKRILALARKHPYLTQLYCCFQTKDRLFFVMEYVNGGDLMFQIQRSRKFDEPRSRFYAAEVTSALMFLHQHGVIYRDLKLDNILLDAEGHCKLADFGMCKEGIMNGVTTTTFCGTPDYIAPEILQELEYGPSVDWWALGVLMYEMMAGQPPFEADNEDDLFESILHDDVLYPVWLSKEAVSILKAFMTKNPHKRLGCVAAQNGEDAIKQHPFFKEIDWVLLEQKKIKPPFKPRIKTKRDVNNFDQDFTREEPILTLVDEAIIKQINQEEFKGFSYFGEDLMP
Excerpt: as §2, §3

mouse PKCη-mVenus = mouse PKCη-mVenus (Mus musculus, UniProt P23298); test: Fluorescent cellular competition assay with probe 47, PKCη-mVenus; type: binding; set-up: eight plasmids encoding full length mouse PKC isozymes fused to; expressed in transfected cells; host or cells: HEK293
Sequence of mouse PKCη-mVenus (P23298 whole entry, the tested form may be a part): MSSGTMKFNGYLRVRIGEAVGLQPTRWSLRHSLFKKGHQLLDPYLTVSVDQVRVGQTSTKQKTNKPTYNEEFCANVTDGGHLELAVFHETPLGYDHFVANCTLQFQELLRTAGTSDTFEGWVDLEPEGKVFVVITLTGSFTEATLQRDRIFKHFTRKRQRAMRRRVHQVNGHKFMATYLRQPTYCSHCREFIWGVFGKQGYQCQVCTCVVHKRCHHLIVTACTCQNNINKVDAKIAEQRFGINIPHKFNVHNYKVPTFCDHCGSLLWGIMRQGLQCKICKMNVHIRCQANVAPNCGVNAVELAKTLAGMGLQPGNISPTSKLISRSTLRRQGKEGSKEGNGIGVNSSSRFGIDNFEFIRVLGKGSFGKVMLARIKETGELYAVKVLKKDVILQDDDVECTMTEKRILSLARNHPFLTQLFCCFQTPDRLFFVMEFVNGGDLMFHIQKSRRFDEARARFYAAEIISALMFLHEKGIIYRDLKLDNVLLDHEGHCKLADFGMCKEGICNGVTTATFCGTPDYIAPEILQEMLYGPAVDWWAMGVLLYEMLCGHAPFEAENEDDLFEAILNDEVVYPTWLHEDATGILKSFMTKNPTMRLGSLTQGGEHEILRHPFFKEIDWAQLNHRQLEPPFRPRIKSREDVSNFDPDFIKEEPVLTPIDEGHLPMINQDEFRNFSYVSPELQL
Excerpt: as §2, §3

mouse PKCθ-mVenus = mouse PKCθ-mVenus (Mus musculus, UniProt Q02111); test: Fluorescent cellular competition assay with probe 47, PKCθ-mVenus; type: binding; set-up: eight plasmids encoding full length mouse PKC isozymes fused to; expressed in transfected cells; host or cells: HEK293 (transient)
Sequence of mouse PKCθ-mVenus (Q02111 whole entry, the tested form may be a part): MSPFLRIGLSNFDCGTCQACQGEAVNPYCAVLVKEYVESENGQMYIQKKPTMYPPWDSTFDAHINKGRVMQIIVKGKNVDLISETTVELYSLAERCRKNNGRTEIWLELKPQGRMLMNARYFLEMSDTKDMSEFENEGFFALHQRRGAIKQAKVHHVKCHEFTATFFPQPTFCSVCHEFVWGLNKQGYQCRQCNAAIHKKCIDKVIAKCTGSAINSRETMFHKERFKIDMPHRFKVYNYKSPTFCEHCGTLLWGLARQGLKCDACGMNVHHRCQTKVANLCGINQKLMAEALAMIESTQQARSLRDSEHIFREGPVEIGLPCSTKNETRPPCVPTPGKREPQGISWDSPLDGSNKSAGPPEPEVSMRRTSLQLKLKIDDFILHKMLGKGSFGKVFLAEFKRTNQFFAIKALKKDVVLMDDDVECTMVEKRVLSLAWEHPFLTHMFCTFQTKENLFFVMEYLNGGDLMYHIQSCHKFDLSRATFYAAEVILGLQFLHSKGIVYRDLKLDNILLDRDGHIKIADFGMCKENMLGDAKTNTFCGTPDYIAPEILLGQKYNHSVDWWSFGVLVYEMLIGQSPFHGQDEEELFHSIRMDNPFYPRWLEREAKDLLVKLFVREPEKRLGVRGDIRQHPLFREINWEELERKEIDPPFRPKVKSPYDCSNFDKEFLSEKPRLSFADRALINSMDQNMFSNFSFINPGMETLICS
Excerpt: as §2, §3

In the case of `CCCCCCN(CCCCCCCCCCCCNC(=O)c1cc2ccc(O)cc2oc1=O)C(=O)O[C@@]12[C@H](O)[C@@H](C)[C@@]3(O)[C@@H](C=C(CO)C[C@]4(O)C(=O)C(C)=C[C@@H]34)[C@@H]1C2(C)C` [probe 2, (1aR,1bS,4aR,7aS,7bS,8R,9R,9aS)-4a,7b,9-trihydroxy-3-(hydroxymethyl)-1,1,6,8-tetramethyl-5-oxo-1,1a,1b,4,4a,5,7a,7b,8,9-decahydro-9aH-cyclopropa[3,4]benzo[1,2-e]azulen-9a-yl hexyl(12-(7-hydroxy-2-oxo-2H-chromene-3-carboxamido)dodecyl)carbamate], the “Cellular Kd for probe, PKCβI-mVenus” value (murine PKCβI-mVenus) is reported as “prevented reliable measurements of cellular affinity”, the “translocation of PKCβI-mVenus” value (PKCβI-mVenus) is reported as “translocated to cellular membranes” and the “half-time (t1/2) of cellular uptake in transfected cells” value [1] is reported as 14 min.
In the case of `CC(=O)O[C@H]1C(=O)[C@@]2(C)[C@H]([C@H](OC(=O)c3ccccc3)[C@]3(O)C[C@H](O)C(C)=C1C3(C)C)[C@]1(OC(C)=O)CO[C@@H]1C[C@@H]2O` [baccatin III], the “inhibition of binding of PB-GABA-Taxol to cellular microtubules” value [2] is given as 28%, the Kd [3] is given as 6.7 ± 2 µM and the Ki [4] is given as 17 ± 3 µM.
With `CCCCCCN(CCCCCCCCCCCCNC(=O)c1cc2ccc(N(CC)CC)cc2oc1=O)C(=O)O[C@@]12[C@H](O)[C@@H](C)[C@@]3(O)[C@@H](C=C(CO)C[C@]4(O)C(=O)C(C)=C[C@@H]34)[C@@H]1C2(C)C` [probe 3, (1aR,1bS,4aR,7aS,7bS,8R,9R,9aS)-4a,7b,9-trihydroxy-3-(hydroxymethyl)-1,1,6,8-tetramethyl-5-oxo-1,1a,1b,4,4a,5,7a,7b,8,9-decahydro-9aH-cyclopropa[3,4]benzo[1,2-e]azulen-9a-yl (12-(7-(diethylamino)-2-oxo-2H-chromene-3-carboxamido)dodecyl)(hexyl)carbamate] the “translocation of PKCβI-mVenus” value (PKCβI-mVenus) was “translocated to cellular membranes” and the “half-time (t1/2) of cellular uptake in transfected cells” value [1] was over 100 min.
For `CCCCCCCCCCCCCC(=O)O[C@@H]1[C@@H](C)[C@@]2(O)[C@@H](C=C(CO)C[C@]3(O)C(=O)C(C)=C[C@@H]23)[C@@H]2C(C)(C)[C@]12OC(C)=O` [PMA, 12-O-tetradecanoylphorbol-13-acetate], the “Efficacy, PKCβI” value (mouse PKCβI-mVenus; PMA vs probe 47) was 103%, the “IC50/Ki, PKCβI” value (mouse PKCβI-mVenus; PMA vs probe 47) was 2.5 and the IC50 (mouse PKCβI-mVenus; probe 47 1.4 μM, verapamil 25 μM, read-out: IC50 (PMA), PKCβI) was 15 nM. For the same compound, the Ki (mouse PKCβI-mVenus; probe 47 1.4 μM, verapamil 25 μM, read-out: Ki (PMA), PKCβI) was 5.7 nM, the “Efficacy, PKCα” value (mouse PKCα-mVenus; PMA vs probe 47) was 95% and the “IC50/Ki, PKCα” value (mouse PKCα-mVenus; PMA vs probe 47) was 1.9. For the same compound, the IC50 (mouse PKCα-mVenus; probe 47 1.4 μM, verapamil 25 μM, read-out: IC50 (PMA), PKCα) was 14 nM, the Ki (mouse PKCα-mVenus; probe 47 1.4 μM, verapamil 25 μM, read-out: Ki (PMA), PKCα) was 7.5 nM and the “Efficacy, PKCγ” value (mouse PKCγ-mVenus; PMA vs probe 47) was 97%. For the same compound, the “IC50/Ki, PKCγ” value (mouse PKCγ-mVenus; PMA vs probe 47) was 2.4, the IC50 (mouse PKCγ-mVenus; probe 47 2.9 μM, verapamil 25 μM, read-out: IC50 (PMA), PKCγ) was 12 nM and the Ki (mouse PKCγ-mVenus; probe 47 2.9 μM, verapamil 25 μM, read-out: Ki (PMA), PKCγ) was 4.9 nM. The “Efficacy, PKCδ” value (mouse PKCδ-mVenus; PMA vs probe 47) was 81%, the “IC50/Ki, PKCδ” value (mouse PKCδ-mVenus; PMA vs probe 47) was 1.7 and the IC50 (mouse PKCδ-mVenus; probe 47 5.8 μM, verapamil 25 μM, read-out: IC50 (PMA), PKCδ) was 39 nM. The Ki (mouse PKCδ-mVenus; probe 47 5.8 μM, verapamil 25 μM, read-out: Ki (PMA), PKCδ) was 23 nM, the “Efficacy, PKCε” value (mouse PKCε-mVenus; PMA vs probe 47) was 81% and the “IC50/Ki, PKCε” value (mouse PKCε-mVenus; PMA vs probe 47) was 1.4. The IC50 (mouse PKCε-mVenus; probe 47 2.9 μM, verapamil 25 μM, read-out: IC50 (PMA), PKCε) was 49 nM, the Ki (mouse PKCε-mVenus; probe 47 2.9 μM, verapamil 25 μM, read-out: Ki (PMA), PKCε) was 36 nM and the “Efficacy, PKCη” value (mouse PKCη-mVenus; PMA vs probe 47) was 80%. For the same compound, the “IC50/Ki, PKCη” value (mouse PKCη-mVenus; PMA vs probe 47) was 1.5, the IC50 (mouse PKCη-mVenus; probe 47 4.3 μM, verapamil 25 μM, read-out: IC50 (PMA), PKCη) was 32 nM and the Ki (mouse PKCη-mVenus; probe 47 4.3 μM, verapamil 25 μM, read-out: Ki (PMA), PKCη) was 21 nM. For the same compound, the “Efficacy, PKCθ” value (mouse PKCθ-mVenus; PMA vs probe 47) was 80%, the “IC50/Ki, PKCθ” value (mouse PKCθ-mVenus; PMA vs probe 47) was 1.4 and the IC50 (mouse PKCθ-mVenus; probe 47 4.3 μM, verapamil 25 μM, read-out: IC50 (PMA), PKCθ) was 13 nM. For the same compound, the Ki (mouse PKCθ-mVenus; probe 47 4.3 μM, verapamil 25 μM, read-out: Ki (PMA), PKCθ) was 10 nM.
